Laboratory results from US7033829B2, “Method to inhibit cell growth using oligonucleotides” (Trustees of Boston University, priority 2000, dated 2006).
Oligonucleotides are written 5' to 3', each unit as a sugar letter and its base; * is a phosphorothioate linkage, no mark a phosphodiester; rarer units and linkages stand in square brackets, end groups in braces. Plain capitals give the bases only. d = 2'-deoxy (DNA); {P} = phosphate

Tests used:
SCC12F cells = experiment: FACS cell cycle analysis of SCC12F cells; format: cell-based, human; details: for cells in the S phase / S-phase arrest: 48 hours (control 26%)
Protocol: However, when increasing concentrations of the phosphorothioate 11mer-1 were also added to these cultures, fewer cells became arrested (FIGS. 21A–21G).
Exposure of keratinocytes to UVB irradiation affects the expression of genes involved in cell cycle arrest, DNA repair and cytokine production. Single-stranded oligonucleotides sharing sequence homology with the telomere 3′ overhang, when introduced into cells, mimic these UV effects. To identify other genes that may be similarly modulated, cells of keratinocyte origin (SCC12F; a human epidermal squamous cell carcinoma line provided by Dr. James Rheinwald of Harvard University) were exposed to solar simulated irradiation (SSR) (20 mJ/cm^2, measured at 285±5 nm), to an 11-base oligonucleotide (pGTTAGGGTTAG; SEQ ID NO:5) homologous to the telomere overhang (T-oligo), or to a complementary sequence as control [pCTAACCCTAAC; (SEQ ID NO:9) control oligonucleotide]. […] These are mitochondrial-transcribed genes whose encoded proteins participate in cellular respiration.
In order to determine whether these oligonucleotides similarly affect other human cell types and to investigate the role of p53, we treated a squamous cell carcinoma line (SCC12F) (Rheinwald, J. G., et al., 1983, Human carcinogenesis. pp. 86–96. Academic Press (New York)) that over-expresses a presumptively mutated p53 (Eller, M. S. and B. A. Gilchrest. 2000, Pigment Cell Res. 13: 94–97) and a p53-null osteosarcoma cell line (Saos-2) (Wang, L. H., et al., 1998, Anticancer Res 18: 321–325) with either diluent alone, 11mer-1, 11mer-2 or 11mer-3. Cultures were analyzed by FACS after 48 hours (FIGS. 33A–33H). […] Although the percentage of cells in the S-phase in 11mer-1-treated SCC12F and Saos-2 cells was virtually identical (53±6% and 52±1%, respectively), the G0/G1 and G2/M content of the two cell types were somewhat different. This may reflect differential uptake of the oligonucleotide leading to dose-dependent differences, and/or different pathways acting in these cells to control the cell cycle. No apoptotic response to the oligonucleotides was detected in either cell type within 72 hours.

MM-AN cells = experiment: Tumorigenicity of pretreated MM-AN cells in SCID mice; format: in vivo; details: cells pretreated 40 μM 48 hours; day 18 (diluent 322±45)
Protocol: To study the effect of T-oligo on the tumorigenicity of MM-AN cells, cells were grown in DMEM with 5% fetal bovine serum (FBS) and treated with 40 μM of T-oligo, complement, or diluent alone for 48 hours. The cells were then harvested with trypsin/EDTA and the percent viability determined by trypan blue exclusion. […] The tumorigenicity of these melanoma cells was determined by injecting 1×10^6 viable cells in balanced salt solution subcutaneously over the right scapular region of SCID mice (3 groups of 5 mice) to produce tumors. The animals were sacrificed by CO2 inhalation 18 days after treatment and the tumor size evaluated with calipers. Tumors were processed for hematoxylin and eosin staining and the melanocytic origin of the tumors was confirmed by immunohistochemical staining of the lesion using HMB-45 monoclonal antibody, which recognizes gp-100, a conventional marker for human melanoma.

melanin in ear skin = experiment: In vivo melanogenic activity on ears (Fontana Masson); parameters: species or system mice; details: 100 μM once daily in propylene glycol; 15 days
Protocol: In another experiment, mice were treated once daily with either 100 μM pTpT or SEQ ID NO: 1 containing a 5′ phosphate in propylene glycol on one ear, or vehicle alone on the other ear. After 15 days, when the ears were sectioned and stained with Fontana Masson to detect melanin compared to vehicle controls, there was a 70% increase in pigmentation in pTpT-treated ears and a 250% increase with SEQ ID NO: 1. Thus, both compounds comprising as few as 2 and as many as 9 nucleotides are effective at producing the in vitro UV-mimetic effects in vivo.

[1] = Skin penetration of fluorescently-labeled oligonucleotides (ear); format: in vivo, Mice; details: in propylene glycol, 4 hours
Protocol: The compounds of the present invention were tested for skin penetration and in vivo melanogenic activity. Mice were treated (on their ears) with fluorescently-labeled pTpT or SEQ ID NO: 1 (comprising a 5′ phosphate) in propylene glycol for 4 hours, then ear skin was sectioned and examined by confocal microscopy. […] Thus pTpT and SEQ ID NO: 1 comparably penetrate the skin barrier.

mouse skin = experiment: Photodamage of UVB-irradiated XPA+/+ and XPA−/− mouse skin; format: in vivo; details: XPA−/− mice; 72 hours after last UV (diluent 15±5)
From the text: Patients with a mutated xeroderma pigrnentosum group A (XPA) gene have a greater than 1000 fold increased risk of UV-induced skin cancer. XPA^−/− mice mimic the human syndrome [Kraemer, K. et al., pp. 256–261 In: Molecular Biology of Aging (Bohr, V. A., et al., eds.) Munksgaard, Copenhagen, 1999]. We have previously shown that oligonucleotides, particularly thymidine dinucleotide (pTT) and pGAGTATGAG (SEQ ID NO:1) that are partial homologs of the telomere overhang tandem repeat TTAGGG (SEQ ID NO:11), increase levels of proteins involved in nucleotide excision repair and enhance the DNA repair rate. […] The mice were UV irradiated on day 5 with a previously determined erythemogenic UVB dose. […] Seventy-two hours after the last dose of […], the mouse skin was processed histologically to assess general morphology, proliferation (Ki-67) [Ohike N. and T Morohoshi, Pathol Int (2001), 51:770–777; Billgren, A. M. et al., Breast Cancer Res Treat (2002), 71:161–170], cyclobutane pyrimidine dimers (CPDs) determined by specific antibody binding, and on-going DNA repair [proliferating cell nuclear antigen (PCNA); see Savio, M. et al., Carcinogenesis (1998) 19:591–596; Rudolph, P. et al., Hum Pathol (1998) 29:1480–1487].

S91 cells = experiment: Cellular uptake of FAM-labeled oligonucleotides in S91 cells; format: in vitro ADME, mouse; details: 4 hours
Protocol: Fluorescein phosphoramidite (FAM) labeled oligonucleotides were added to cultures of S91 cells for 4 hours and the cells were then prepared for confocal microscopy. Nuclei, identified by staining with propidium iodide, appeared red and FAM-labeled oligonucleotides appeared green. Co-localization of red and green signals was assigned a yellow color by the computer. […] There was no change in the profile of oligonucleotide uptake after 6 and 24 hours.

**Q.** Which “cells in the S phase / S-phase arrest” value (SCC12F cells) does the source give for “11mer-1-S: phosphorothioate 11mer-1 (dG*dT*dT*dA*dG*dG*dG*dT*dT*dA*dG; further chemistry not fully specified)” here?
**A.** did not induce the S-phase arrest

**Q.** Which Mean tumor volume (MM-AN cells) does the source give for “pCTAACCCTAAC (DNA, 5' {P}, backbone not given here) [SEQ ID NO: 9, reference compound]” here?
**A.** 238±50 mm^3

**Q.** What does the source list for “pGAGTATGAG (DNA, 5' {P}, backbone not given here) [SEQ ID NO: 1]”?
**A.** increase in pigmentation compared to vehicle controls (melanin in ear skin): 250%; skin penetration (confocal microscopy) [1]: brightly stained epidermis and hair follicles; CPD (+) cells per 400× microscopic field (mouse skin): none; cellular uptake and localization (confocal microscopy, FACS) (S91 cells): intense staining that strongly localized to the nucleus

**Q.** For “pGTTAGGGTTAG (DNA {P}-dGdTdTdAdGdGdGdTdTdAdG) [SEQ ID NO: 5]”, which Mean tumor volume (MM-AN cells) is on record?
**A.** 56±13 mm^3

**Q.** What about the “cells in the S-phase” value (SCC12F cells; 40 μM, 48 hours) of the same substance?
**A.** 53±6%

**Q.** What about the “cells in the S phase / S-phase arrest” value (SCC12F cells) of the same substance?
**A.** Forty-three precent

**Q.** And the “cells arrested in the S-phase” value (SCC12F cells; Example 27 (control cells <23%))?
**A.** > 43%

**Q.** With thymidine dinucleotide [pTpT] as the substance, how does the “increase in pigmentation compared to vehicle controls” value (melanin in ear skin) read?
**A.** 70%

**Q.** What about the “skin penetration (confocal microscopy)” value [1] of the same substance?
**A.** brightly stained epidermis and hair follicles

**Q.** And the “CPD (+) cells per 400× microscopic field” value (mouse skin)?
**A.** none

**Q.** And the “cellular uptake and localization (confocal microscopy, FACS)” value (S91 cells)?
**A.** strong green fluorescence in the cytoplasm, but only a small amount of nuclear localization
